Reference: the supplement of paper PMC11997997

Key:
[1] = tested on: murine bone marrow-derived macrophages; experiment: area under cytotoxicity dose-response curve (AUC (% cytotoxicity x dose, relative)); higher = more cytotoxic; settings: duration: 6 days; dose range: 0.13-80 uM, 8 points
Method in brief: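 Values are the area under the cytotoxicity dose–response curve, calculated with GraphPad Prism version 10. Primary murine bone marrow-derived macrophages were exposed to final concentrations of 80–0.13 μM for 6 days, and viability was read by CellTiter-Glo luminescence with normalisation to vehicle and positive control wells.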

[2] = tested on: Mycobacterium tuberculosis CDC1551 (intracellular, in murine BMDM); experiment: area under intracellular growth-inhibition dose-response curve (AUC (% inhibition x dose, relative)); higher = more potent; settings: duration: 6 days; dose range: 0.13-80 uM, 8 points
Method in brief: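 The value is the area under the growth-inhibition dose–response curve, calculated in GraphPad Prism. Primary murine bone marrow-derived macrophages were seeded in 384-well opaque plates and, 24 h later, infected for 1 h with luciferase-expressing M. tuberculosis CDC1551 at multiplicity of infection 1. Cells were then exposed for 6 days to an 8-dose, 2.5-fold series (final 80–0.13 μM). Growth was read with the Bright-Glo luciferin assay and normalised to a reference drug control and to the lowest-concentration wells.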

| SMILES | area under cytotoxicity dose-response curve [1] | area under intracellular growth-inhibition dose-response curve [2] |
| --- | --- | --- |
| C[C@H]1c2cccc(O)c2C(=O)C2C(=O)C3(O)C(=O)C(C(N)=O)C(=O)[C@@H](N(C)C)[C@@H]3[C@@H](O)[C@@H]21.Cl (some centres undefined) | 33.4 | 259 |
| COc1cccc(CNC(=O)CN2C(=O)NC(Cc3ccccc3)(c3ccccc3)C2=O)c1 (centres undefined) | 1.94 | 89.4 |
| Cc1ccc(/C(O)=C/c2nc3ccccc3oc2=O)cc1 | < 0 | 22.9 |
| O=C(C=Cc1cccs1)c1ccc(Cl)s1 | 8.27 | 235 |
| CC(=O)N1CCN(S(=O)(=O)c2cccc(C(=O)Nc3ccccc3N3CCCCC3)c2)CC1 | 21.9 | < 0 |
| CC(NC(=O)c1cccc(F)c1)C1CC2CCC1C2 (centres undefined) | < 0 | 273 |
| CCCCCCn1c(=O)c(C(=O)Nc2cnccn2)c(O)c2ccccc21 | < 0 | 56.4 |
| C/C(=N\NC(N)=S)c1ccncc1 | 113 | 138 |
| Cc1cc(Cl)ccc1NC(=S)NCC(O)c1ccccc1 (centres undefined) | 76.6 | 126 |
| COCCCNCC(=O)Nc1sc(C)c(C)c1C(=O)OC.O=C(O)C(=O)O | 48.9 | 76.8 |
| COc1ccc(CNc2nc3nc4c(c(O)n3n2)CCC4)cc1 | 15.2 | 140 |
| CCOc1ccc(-c2cnc(NCc3cccc4ccccc34)n2CCOC)cc1.O=C(O)C(=O)O | 23.1 | 66.2 |
| COc1ccc(C2=NOC(CNC(N)=S)C2)cc1 (centres undefined) | 7.88 | 92.8 |
| Br.CCCc1cc(-c2nc(-c3ccc(C)cc3)cs2)ccn1 | 45.6 | 80.7 |
| O=[N+]([O-])c1ccc(CN2CCN(c3ccccc3Cl)CC2)o1 | 63.5 | 123 |
| COc1ccc(OCc2n(CC(=O)OC3CC(C)CCC3C(C)C)c3ccccc3[n+]2C)cc1.[Cl-] (centres undefined) | 58.8 | 139 |
| CCc1ccc(NC(=S)Nc2ccc3c[nH]nc3c2)cc1 | 33.8 | 237 |
| O=C(Nc1ccc(NC(=S)NC(=O)c2ccco2)cc1)c1ccccc1 | 40 | 192 |
| O=C(Nc1ccc(NC(=S)NC(=O)c2cccs2)cc1)c1ccccc1 | 33.4 | 244 |
| CC[C@@H](C)[C@@H]1CN([C@@H](CN2CCC[C@H]2CN2C(N)=NC[C@H]2C(C)C)C(C)C)C(=N)N1CCCC1CCCC1 | 32.4 | 191 |
| CNC[C@@H](CC1CCCCC1)NC[C@H](CC(C)C)NCCc1cccc(C(F)(F)F)c1 | 94 | 197 |

| SMILES | area under cytotoxicity dose-response curve [1] | area under intracellular growth-inhibition dose-response curve [2] |
| --- | --- | --- |
| O=C(CC12CC3CC(CC(C3)C1)C2)N1CCCC1 | 75.6 | 216 |
| O=C(/C=C/c1cccs1)NC1CCCC1 | 39.1 | 114 |
| O=C(COC(=O)C1COc2ccccc2O1)Nc1cccc(F)c1 (centres undefined) | < 0 | 46.1 |
| CC1CCCN(C(=O)C2CCC(CNc3c(N4CCCCC4)c(=O)c3=O)CC2)C1 (centres undefined) | 8.75 | 91.7 |
| O=C(Nc1ccc(N2CCN(Cc3ccccc3F)CC2)cc1)c1ccc([N+](=O)[O-])o1 | 5.12 | 186 |
| CCCOc1ccc(C(=O)CCC(=O)NNC(=O)c2ccncc2)cc1 | < 0 | 269 |
| CCC12CN3CCN(CC(C3)/C1=N/NC(=O)c1ccncc1)C2 | 13.3 | 206 |
| CCOc1c2c(nc3ccc(Cl)cc13)CCC2 | 57.1 | 157 |
| CCC(=O)NC(=S)Nc1ccc(NC(=S)NC(=O)c2ccc(C)cc2)cc1 | 11.9 | 265 |
| Cc1c(Cl)cnn1CC(=O)NC1C(=O)N2C(C(=O)O)=C(CSc3nnnn3C)CSC12 (centres undefined) | 18.6 | 168 |
| CCOC1OC(O)=C(Cl)/C1=N\c1ccccc1C (centres undefined) | < 0 | 231 |
| CC1CCN(Cc2nc(-c3ccccc3)no2)CC1.Cl | 111 | 175 |
| CCOC(=O)c1c(C)nc2ccc(C)cn12 | 24.3 | 155 |
| COc1cc(/C=C/C(=O)c2ccc([N+](=O)[O-])o2)ccc1O | 107 | 76 |
| COc1ccc(CNC(=O)c2c(C)nc3ccccn23)cc1 | 8.66 | 268 |
| O=C(OCC(=O)c1ccc(Cl)s1)c1cncc(Br)c1 | 95.6 | 0.884 |
| CC1CCN(C(=O)C2CCC(CNc3c(N4CCCCC4)c(=O)c3=O)CC2)CC1 (centres undefined) | 8.86 | 87.1 |
| CC1CCCN(c2ccc([N+](=O)[O-])s2)C1 (centres undefined) | < 0 | 241 |
| Cc1cc(NS(=O)(=O)c2ccc(N)cc2)no1 | 28.4 | 57.8 |
| CC(=O)Nc1cccc(/C(C)=N/NC(N)=S)c1 | < 0 | 235 |
| COc1ccc(/C=N/NC(=O)c2ccncc2)cc1COc1ccc(NC(C)=O)cc1 | 14.4 | 272 |

| SMILES | area under cytotoxicity dose-response curve [1] | area under intracellular growth-inhibition dose-response curve [2] |
| --- | --- | --- |
| CC(NC(=O)c1ccc(F)cc1)c1ccc(F)cc1 (centres undefined) | 31.2 | 230 |
| COc1cc(/C=N/NC(=O)C23CC4CC(CC(C4)C2)C3)cc(Br)c1O | 23.8 | 154 |
| CCS(=O)(=O)N1CCN(C(=O)CCC2CCCC2)CC1 | 19.5 | 214 |
| CSc1nnc(-c2ccc(NC(N)=S)cc2)o1 | 96.1 | 154 |
| COc1c(N2CCN(C(=S)NC3CC4CCC3C4)C(C)C2)c(F)cc2c(=O)c(C(=O)O)cn(C3CC3)c12 (centres undefined) | 8.11 | 239 |
| O=C(NCC1CCCCC1)c1ccc([N+](=O)[O-])cc1 | 77.6 | 239 |
| O=C(NCc1ccc2c(c1)OCO2)c1ccc(Br)o1 | 76.4 | 174 |
| O=C(C1COc2ccccc2O1)N1CCCCC1 (centres undefined) | 76 | 236 |
| CC(NC(=O)c1ccccc1)c1ccc(F)cc1 (centres undefined) | < 0 | 265 |
| NC(=S)NN=C1Cc2cccc3cccc1c23 | 58.9 | 263 |
| O=C(CCN1C(=O)S/C(=C\c2ccc(F)cc2)C1=O)Nc1ccc(C(=O)O)c(O)c1 | 11.3 | 120 |
| CC1CCCC(/C=N/c2ccc(C(=O)O)c(O)c2)=C1O (centres undefined) | < 0 | 135 |
| CC1C/C(=C/c2ccncc2)C(=O)/C(=C/c2ccncc2)C1 (centres undefined) | 54.5 | < 0 |
| COc1cc(C(C)=NNC(=O)c2ccncc2)ccc1O | 47.1 | 265 |
| C/C(=N/NC(=O)c1ccncc1)c1ccc2c(c1)OCO2 | 13.8 | 257 |
| Cc1ccc(-c2cc(-c3ccccc3)cc(-c3ccccc3)[n+]2-c2ccccc2)cc1.[O-][Cl+3]([O-])([O-])[O-] | 23.7 | 91.8 |
| COc1cc(/C=N/NC(=O)c2ccncc2)ccc1OCC(=O)Nc1ccccc1 | < 0 | 232 |
| CCCN(Cc1nnc(-c2ccccc2Cl)o1)C(=O)c1cc([N+](=O)[O-])cc([N+](=O)[O-])c1 | 38.7 | 84 |
| Cc1nc(SCC(=O)NC2CCCCC2)nc(O)c1C | 17.5 | 30.2 |
| COc1cc(OC)c([N+](=O)[O-])cc1/C=N/NC(=O)c1ccncc1 | 19 | 242 |
